Laboratory results reported in US9193687B2 (priority 2007, dated 2015).
pIC50: −log10 of the molar value. Where “and” joins values, the source holds several entries; their conditions need not be identical. Equal values may be shown once. Where a name gives a salt, the structure may show the parent alone. Read-outs that look alike come from different tables or passages of the source.

Experiments:
[1] = system: human mammary carcinoma MX-1 xenograft; experiment: Antitumor therapeutic effect against MX-1 xenograft in nude mice; assay type: in vivo; conditions: i.v. injection; for Therapeutic effect: complete tumor remission (CR), mice with CR/total and day: treatment from Day 8, dose and schedule per compound as in Table 3 (30-150 mg/kg); for Maximal body-weight loss (%) / Therapeutic effect: tumor relapse: dose and schedule per compound as in Table 3
Protocol: (§1) Athymic nude mice bearing the nu/nu gene were obtained from NCI, Frederick, Md. and used for all human tumor xenografts. Male nude mice 6 weeks or older weighing 20-24 g or more were used. Compounds were administered via the tail vein for i.v. injection or infusion as described previously.^64 A typical formulation for chemotherapeutic studies for each drug was dissolved in DSMO to make a 25 mg/ml fresh solution, 0.4 ml of this solution was mixed with 0.3 ml of Tween 80, plus 1.3 ml to make 2 ml of 5 mg/ml solution. Bolus injection volume was 0.1-0.2 ml per mouse. Tumor volume was assessed by measuring length×width×height (or width) by using a caliper. For tumor-bearing nude mice during the course of the experiment, the body weight refers to total weight minus the weight of the tumor. All animal studies were conducted in accordance with the guidelines for the National Institute of Health Guide for the Care and Use of Animals and the protocol approved by the Institutional Animal Care and Use Committee.
The therapeutic effects of a drug against human tumor xenografts in nude mice, under the optimal therapeutic conditions but without any lethality due to drug toxicity, the following degrees of therapeutic effects are defined and calculated by the following formula: […]
where • T0 is the initial tumor size (in mm^3) at beginning of drug treatment; • Tc is tumor size of untreated control group on a given date; and • Tx is tumor size of the drug treated group on a given date.
[formula] • Tumor disappearance (complete remission or CR) is defined by the effect where • [Tx=0] for a period of time (in days) for a proportion of animals (NCR/N), where • N is the total number of animals in the group, and NCR is the number of mice in the group that achieved CR. • Tumor relapse is quantitatively calculated by • [The Day tumor relapsed (Drelp)—The Day CR achieved (DCR)] (Eq. 3) for a proportion of animals (Nrelp/N) where N is the total number of animals in the group, and Nrelp is the number of the mice in the group that relapsed. • The log cell kill (LCK) of the tumor tissue after a given chemotherapy that reached CR is estimated by: LCK=log [2^(Tumor remission in days/Tumor doubling time in days)] (Eq. 4)
(§2) Athymic nude mice bearing the nu/nu gene were used for human breast tumor MX-1 xenograft (FIGS. 3 and 4) and human brain glioma U87 GM xenograft (FIG. 5). Nude mice were obtained from National Cancer Institute, Frederick, Md. Male mice 6 weeks old or older weighing 22 g or more were used for experiments with subcutaneous tumor inoculation as described previously.^67 Drug was administrated via the tail vein by iv injection. Tumor volumes were assessed by measuring length×width×height (or width) by using caliper. Vehicle used was 20 μL DMSO in 180 μL saline. All animal studies were conducted in accordance with the guidelines of the U.S. National Institutes of Health Guide for the Care and Use of Animals and the protocol approved by the Institutional Animal Care and Use Committee.

[2] = system: CCRF-CEM human lymphoblastic leukemia cells; experiment: cells; conditions: 72 h, read-out: Cytotoxicity IC50, CCRF-CEM
[3] = system: Human mammary carcinoma (MX-1) tumor cells; experiment: In vitro cytotoxicity, SRB assay, 72-hr incubation; conditions: read-out: Cytotoxicity IC50, MX-1
[4] = system: biosynthesis of DNA, RNA and protein in MX-1 cells; experiment: Inhibition of biosynthesis of DNA, RNA and protein (tritiated tracer incorporation); assay type: cell-based, human; conditions: for inhibition at 10 µM: Homo sapiens, MX1, read-out: Protein synthesis inhibition
Protocol: [^3H]Thymidine (1 uCi), [^3H]adenosine (1 μCi) and [^3H]leucine (2 μCi) were used as the tracers for incorporation into DNA, RNA and protein, respectively. […] Incubation was terminated at each time points as indicated.

CCRF-CEM/Taxol = experiment: In vitro cytotoxicity, XTT assay, taxol-resistant subline; conditions: read-out: Cytotoxicity IC50, CCRF-CEM/Taxol
[5] = system: Human colon carcinoma HCT-116 cells; experiment: cells; conditions: HCT-116, 72 h, read-out: Cytotoxicity IC50, HCT-116
[6] = Half-life in intravenous injection vehicle; conditions: intravenous injection vehicle (DMSO/Tween 80/saline)
[7] = system: human glioma U87 GM s.c. xenograft; experiment: Therapeutic effect against U87 glioma s.c. xenograft in nude mice; assay type: in vivo
Protocol: as §1
as §2, with “Committee. […]” for “Committee.”

[8] = system: CCRF-CEM human lymphoblastic leukemia cells; conditions: read-out: Cytotoxicity IC50, CCRF-CEM
[9] = system: Human colon carcinoma HCT-116 cells; conditions: read-out: Cytotoxicity IC50, HCT-116
prostate cancer (PC3) = experiment: cells; conditions: read-out: Cytotoxicity IC50, PC3; Table 2
lung cancer H460 = experiment: cells; conditions: read-out: Cytotoxicity IC50, H460; Table 2
lung cancer H1299 = experiment: cells; conditions: read-out: Cytotoxicity IC50, H1299; Table 2

CN(C)CCC(=O)Nc1cccc(NC(=O)Nc2ccc(N(CCCl)CCCl)cc2)c1 (as salt: HCl) [BO-2091, N-(3-(3-(4-(bis(2-chloroethyl)amino)-phenyl)ureido)phenyl)-3-(dimethylamino)-propanamide]
melting point: 88 to 90 °C

CN(C)CC(=O)Nc1cccc(NC(=O)Nc2ccc(N(CCCl)CCCl)cc2)c1 (as salt: hydrochloride) [BO-2189, N-(3-(3-(4-(bis(2-chloroethyl)amino)phenyl)ureido)phenyl)-2-(dimethyl-amino)acetamide]
melting point: 62 to 64 °C

Cc1cc(NC(=O)Nc2ccc(N(CCCl)CCCl)cc2)c2ccccc2n1 [BO-1038, 1-{4-[bis(2-chloroethyl)amino]phenyl}-3-(2-methylquinolin-4-yl)urea]
Therapeutic effect: complete tumor remission (CR), mice with CR/total and day [1]: achieved complete tumor remission and 3/3 CR on D16, 16, 16
Maximal body-weight loss (%) [1]: 4%
Therapeutic effect: tumor relapse [1]: No relapse on D70
pIC50 [2]: 6.72
pIC50 ([3]; Homo sapiens, 72 h): 6.47
inhibition at 10 µM [4]: 40 to 80%
pIC50 (CCRF-CEM/Taxol; Homo sapiens, CCRF-CEM, 72 h): 6.37
pIC50 [5]: 5.85

Cc1ccc(Nc2c3ccccc3nc3c(C)cccc23)cc1NC(=O)Nc1ccc(N(CCCl)CCCl)cc1 [BO-1051]
Therapeutic effect: complete tumor remission (CR), mice with CR/total and day [1]: achieved complete tumor remission and 3/3 CR on D16, 16, 18
Maximal body-weight loss (%) [1]: 11%
Therapeutic effect: tumor relapse [1]: No relapse on D70
half-life [6]: ~45 days
Tumor size as % of original tumor size ([7]; 100 mg/kg, Q2D×5, n=3, one cycle, 10 and 12 days after last dose): 18%
Tumor-growth suppression ([7]; BO-1049 150 mg/kg, BO-1051 100 mg/kg, BO-1055 30 mg/kg, Q2D×5, i.v.-injection): complete tumor-growth suppression
Therapeutic effect compared with cyclophosphamide (80 mg/kg, Q2D×5) ([7]; parallel study): superior therapeutic effects than cyclophosphamide
pIC50 [2]: 7.10
half-life (Half-life in rat plasma): 2.25 days
Delay in reaching maximal effect on DNA and RNA biosynthesis ([4]; 10 μM): about 1 hr
inhibition at 10 µM [4]: < 20%
pIC50 (CCRF-CEM/Taxol; Homo sapiens, CCRF-CEM, 72 h): 7.05
pIC50 [5]: 6.36

Cc1ccc(Nc2c3ccccc3nc3ccccc23)cc1NC(=O)Nc1ccc(N(CCCl)CCCl)cc1 [BO-1150]
pIC50 ([8]; Table 1, XTT, 72-hr incubation): 7.70
pIC50 ([3]; Table 1, SRB, 72-hr incubation): 6.24
pIC50 (CCRF-CEM/Taxol; Table 1, XTT, 72-hr incubation): 7.52
pIC50 ([9]; Table 1, SRB, 72-hr incubation): 6.59

CC(C)COC(=O)Nc1cc(COC(=O)Nc2ccc(N(CCCl)CCCl)cc2)cc(Nc2c3ccccc3nc3ccccc23)c1 [BO-1244]
pIC50 ([8]; Table 1, XTT, 72-hr incubation): 6.72
pIC50 ([3]; Table 1, SRB, 72-hr incubation): 5.95
pIC50 (CCRF-CEM/Taxol; Table 1, XTT, 72-hr incubation): 6.19
pIC50 ([9]; Table 1, SRB, 72-hr incubation): 6.52

Cc1cccc2c(Nc3cc(COC(=O)Nc4ccc(N(CCCl)CCCl)cc4)cc(NC(=O)OCC(C)C)c3)c3ccccc3nc12 [BO-1245]
pIC50 ([3]; Table 1, SRB, 72-hr incubation): 5.22
pIC50 (CCRF-CEM/Taxol; Table 1, XTT, 72-hr incubation): 5.47
pIC50 ([9]; Table 1, SRB, 72-hr incubation): 5.62

N.N.[Cl][Pt][Cl] [Cisplatin, reference compound]
pIC50 (prostate cancer (PC3)): 5.00
pIC50 (lung cancer H460): 4.73
pIC50 (lung cancer H1299): 4.87
pIC50 ([8]; Table 2): 5.45
pIC50 ([9]; Table 2): 4.90
